Test results from article PMC7377239, “Cardiovascular Effects of Polychlorinated Biphenyls and Their Major Metabolites” (Environmental Health Perspectives, 2020).
Where two headings read alike, the source gives them in different places.

How the values were obtained:
HUVECs = assay: High-content imaging cytotoxicity in HUVECs, 24 h; assay type: cell-based, human; settings: Homo sapiens, HUVEC, 24 h, HUVECs; for viability at 0.01 µM / activity at 0.01 µM / viability at 0.1 µM / activity at 0.1 µM / viability at 1 µM / activity at 1 µM / viability at 10 µM / activity at 10 µM / viability at 100 µM / activity at 100 µM: 0.00 µM = 100.00; for viability at 0.1 µM / activity at 0.1 µM: 0.10 µM; for minimal effective concentration: top concentration 100.00 µM
Outline: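 HUVECs (passages 1–5) were plated at 750 cells/well without fibronectin, grown to a monolayer (3–5 d) and exposed to compounds for 24 h at 37°C, 5% CO2. Hoechst 33342, MitoTracker Orange and calcein AM staining was imaged at 10×; readouts were normalized to 0.5% DMSO vehicle and fit to a four-parameter logistic model.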

[1] = test system: iCell cardiomyocytes (human iPSC-derived cardiomyocytes); assay: High-content imaging of cytotoxicity and mitochondrial integrity in iPSC-CMs; assay type: cell-based; settings: Homo sapiens; for viability at 0.01 µM / activity at 0.01 µM / viability at 0.1 µM / activity at 0.1 µM / viability at 1 µM / activity at 1 µM / viability at 10 µM / activity at 10 µM / viability at 100 µM / activity at 100 µM: Cardiomyocyte, 0.00 µM = 100.00; for viability at 0.1 µM / activity at 0.1 µM: 0.10 µM; for minimal effective concentration: iPSC-CM
Outline: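 Human iPSC-derived cardiomyocytes were seeded on gelatin-coated 384-well plates at 5,000 cells per well and maintained for 12 d. Test chemicals were added as 10μL of 5× solutions to final concentrations of 0.01 to 100μM. Cells were stained with Hoechst 33342 and MitoTracker™ Orange, fixed in formaldehyde, and imaged by confocal high-content microscopy at 10× magnification.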

[2] = 24 hr, read-out: huvec.cyto.24hr
[3] = 24 hr, read-out: huvec.mito.24hr
[4] = 24 hr, read-out: huvec.mitoint.24hr
[5] = 24 hr, read-out: huvec.nma.24hr
[6] = 24 hrs, read-out: huvec.tc.24hrs

## Oc1cc(Cl)cc(-c2cccc(Cl)c2)c1 [5-OH PCB 11]
HUVECs; [2]
  viability at 0.01 µM: 94.6%
  viability at 0.1 µM: 87.5%
  viability at 1 µM: 93.9%
  viability at 10 µM: 35.9%
  viability at 100 µM: 24.1%
HUVECs; [3]
  activity at 0.01 µM: 93.1%
  activity at 0.1 µM: 86.8%
  activity at 1 µM: 93.3%
  activity at 10 µM: 29.1%
  activity at 100 µM: 13.2%
HUVECs; [4]
  activity at 0.01 µM: 89.8%
  activity at 0.1 µM: 107%
  activity at 1 µM: 101%
  activity at 10 µM: 17.5%
  activity at 100 µM: 12%
HUVECs; [5]
  activity at 0.01 µM: 98.5%
  activity at 0.1 µM: 111%
  activity at 1 µM: 99.7%
  activity at 10 µM: 69.5%
  activity at 100 µM: 77.5%
HUVECs; 24 hr, read-out: huvec.cyto.24hr POD
  minimal effective concentration: 0.95 µM
HUVECs; 24 hr, read-out: huvec.mito.24hr POD
  minimal effective concentration: 0.84 µM
HUVECs; 24 hr, read-out: huvec.mitoint.24hr POD
  minimal effective concentration: 3.3 µM
HUVECs; 24 hr, read-out: huvec.nma.24hr POD
  minimal effective concentration: 1.22 µM
HUVECs; [6]
  viability at 0.01 µM: 94.6%
  viability at 0.1 µM: 87.5%
  viability at 1 µM: 93.9%
  viability at 10 µM: 36%
  viability at 100 µM: 26.8%
HUVECs; 24 hrs, read-out: huvec.tc.24hrs POD
  minimal effective concentration: 0.95 µM
[1]; 1.5 h, read-out: cm.cam.90min
  viability at 0.01 µM: 91%
  viability at 0.1 µM: 96.6%
  viability at 1 µM: 99%
  viability at 10 µM: 98.4%
  viability at 100 µM: 0%
[1]; 1.5 h, read-out: cm.mii.90min
  activity at 0.01 µM: 117%
  activity at 0.1 µM: 96.6%
  activity at 1 µM: 90.6%
  activity at 10 µM: 108%
  activity at 100 µM: 69.7%
[1]; 1.5 h, read-out: cm.mito.90min
  activity at 0.01 µM: 90.7%
  activity at 0.1 µM: 96.4%
  activity at 1 µM: 99%
  activity at 10 µM: 98%
  activity at 100 µM: 0.0231%
[1]; 1.5 h, read-out: cm.tc.90min
  viability at 0.01 µM: 91.1%
  viability at 0.1 µM: 96.5%
  viability at 1 µM: 99%
  viability at 10 µM: 98%
  viability at 100 µM: 0.0231%
[1]; 24 h, read-out: cm.cam.24hrs
  viability at 0.01 µM: 99%
  viability at 0.1 µM: 101%
  viability at 1 µM: 99.8%
  viability at 10 µM: 98.2%
  viability at 100 µM: 0.0236%
[1]; 24 h, read-out: cm.mii.24hrs
  activity at 0.01 µM: 95.3%
  activity at 0.1 µM: 93.9%
  activity at 1 µM: 100%
  activity at 10 µM: 81.6%
  activity at 100 µM: 0%
[1]; 24 h, read-out: cm.mito.24hrs
  activity at 0.01 µM: 97%
  activity at 0.1 µM: 100%
  activity at 1 µM: 97.8%
  activity at 10 µM: 98.7%
  activity at 100 µM: 0%
[1]; 24 h, read-out: cm.tc.24hrs
  viability at 0.01 µM: 99.8%
  viability at 0.1 µM: 101%
  viability at 1 µM: 99.8%
  viability at 10 µM: 97.8%
  viability at 100 µM: 0.0229%
[1]; 1.5 h, read-out: cm.cam.90min POD
  minimal effective concentration: 16.2 µM
[1]; 1.5 h, read-out: cm.mii.90min POD
  minimal effective concentration: 34.1 µM
[1]; 1.5 h, read-out: cm.mito.90min POD
  minimal effective concentration: 13.8 µM
[1]; 1.5 h, read-out: cm.tc.90min POD
  minimal effective concentration: 14 µM
[1]; 24 h, read-out: cm.cam.24hrs POD
  minimal effective concentration: 13.8 µM
[1]; 24 h, read-out: cm.mii.24hrs POD
  minimal effective concentration: 8.43 µM
[1]; 24 h, read-out: cm.mito.24hrs POD
  minimal effective concentration: 14.6 µM
[1]; 24 h, read-out: cm.tc.24hrs POD
  minimal effective concentration: 10.7 µM
